The assay deals with T1, rat mGluR1a receptor (Rattus norvegicus, UniProt P23385).
T1 construct: expressed in transfected cells; host or cells: HEK 293 cells (transient transfection; membranes used)
Kind of assay: Binding assay for the characterization of mGluR 1 antagonistic properties (tritiated radioligand displacement, membranes of transfected HEK 293 cells). Particulars: membranes of HEK 293 cells transiently transfected with rat mGluR1a; radioligand 3 nM; 1 hour at room temperature; read-out: B-IC50. How it is done: Binding Assay for the Characterization of mGluR 1 Antagonistic Properties
Binding assay with tritiated 1-ethyl-2-methyl-6-oxo-4-(1,1,2-tritritio-1,2,4,5-tetrahydro-benzo[d]azepin-3-yl)-1,6-dihydro-pyrimidine-5-carbonitrile (Eur. Pat. Appl. EP 1 074 549 A2): HEK 293 cells were transiently transfected with the rat mGluR1a receptor. The cells were collected and washed 3 times with PBS. The cell pellets were frozen at −80° C. Membranes were prepared from HEK 293 cells transfected with the rat mGluR1a receptor and used in the binding experiments at 10 μg proteins per assay after resuspension in a HEPES NaOH 20 mM, pH=7.4 binding buffer. 1-Ethyl-2-methyl-6-oxo-4-(1,1,2-tritritio-1,2,4,5-tetrahydro-benzo[d]azepin-3-yl)-1,6-dihydro-pyrimidine-5-carbonitrile (S.A 33.4 Ci/mmol) was used at 3 nM final concentration. The incubation with variable concentrations of potential inhibitors was performed for 1 hour at room temperature, the incubate was then filtered onto GF/B glass fiber filter preincubated 1 hour in PEI 0,1% and washed 3 times with 1 ml of cold binding buffer. The radioactivity retained on the unifilter 96 was counted using a Topcount β counter. After correction for non specific binding the data were normalized and the IC50 value calculated using a 4 parameters logistic equation which was fitted to the inhibition curve.
In general terms: In a radioligand displacement assay an active substance lowers the binding of a labelled ligand.

T1 sequence (P23385 19-1199): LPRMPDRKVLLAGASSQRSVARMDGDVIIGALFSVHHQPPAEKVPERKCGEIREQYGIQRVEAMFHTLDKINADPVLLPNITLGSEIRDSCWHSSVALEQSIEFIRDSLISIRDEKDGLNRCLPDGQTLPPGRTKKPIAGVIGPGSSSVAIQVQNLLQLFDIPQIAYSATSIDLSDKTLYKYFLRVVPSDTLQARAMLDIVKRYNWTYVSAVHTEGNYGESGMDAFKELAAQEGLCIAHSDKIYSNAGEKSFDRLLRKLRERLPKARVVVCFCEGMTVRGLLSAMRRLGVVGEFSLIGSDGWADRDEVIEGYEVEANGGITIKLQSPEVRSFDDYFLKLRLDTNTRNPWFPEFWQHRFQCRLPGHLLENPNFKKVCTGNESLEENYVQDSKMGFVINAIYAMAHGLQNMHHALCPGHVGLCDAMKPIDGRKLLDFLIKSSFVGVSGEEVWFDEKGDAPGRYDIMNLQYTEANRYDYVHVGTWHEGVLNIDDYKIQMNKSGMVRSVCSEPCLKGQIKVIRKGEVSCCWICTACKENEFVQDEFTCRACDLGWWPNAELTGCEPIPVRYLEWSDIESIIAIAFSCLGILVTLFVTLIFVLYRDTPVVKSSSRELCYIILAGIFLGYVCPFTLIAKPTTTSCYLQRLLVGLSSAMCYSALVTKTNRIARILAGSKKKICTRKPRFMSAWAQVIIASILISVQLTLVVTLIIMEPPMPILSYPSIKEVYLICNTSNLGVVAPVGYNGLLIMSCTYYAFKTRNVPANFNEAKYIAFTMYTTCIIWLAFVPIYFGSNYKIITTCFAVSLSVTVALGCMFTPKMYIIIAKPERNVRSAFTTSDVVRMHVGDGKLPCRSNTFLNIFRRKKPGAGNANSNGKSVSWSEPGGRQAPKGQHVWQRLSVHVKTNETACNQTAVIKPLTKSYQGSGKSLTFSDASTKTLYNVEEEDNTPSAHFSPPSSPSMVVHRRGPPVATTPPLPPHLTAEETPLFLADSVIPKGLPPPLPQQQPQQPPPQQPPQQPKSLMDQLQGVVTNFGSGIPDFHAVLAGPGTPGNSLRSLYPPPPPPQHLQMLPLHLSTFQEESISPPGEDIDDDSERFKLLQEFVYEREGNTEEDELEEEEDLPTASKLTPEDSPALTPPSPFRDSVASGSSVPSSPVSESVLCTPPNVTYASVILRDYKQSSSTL

For `CC(O)CNc1nnc(C#N)c(N2CCc3ccccc3CC2)n1` (racemic) [Example 6, (RS)-3-(2-Hydroxy-propylamino)-5-(1,2,4,5-tetrahydro-benzo[d]azepin-3-yl)-[1,2,4]triazine-6-carbonitrile], the concentration for half-maximal inhibition (IC50) came out at 27 nM.

With `COCCOc1nnc(C#N)c(N2CCc3ccccc3CC2)n1` [Example 1, 3-(2-Methoxy-ethoxy)-5-(1,2,4,5-tetrahydro-benzo[d]azepin-3-yl)-[1,2,4]triazine-6-carbonitrile], the IC50 was 3000 nM.

For the compound `N#Cc1nnc(N)nc1N1CCc2ccccc2CC1` [Example 2, 3-Amino-5-(1,2,4,5-tetrahydro-benzo[d]azepin-3-yl)-[1,2,4]triazine-6-carbonitrile], the IC50 worked out at 27 nM.

On to `CN(C)c1nnc(C#N)c(N2CCc3ccccc3CC2)n1` [Example 3, 3-Dimethylamino-5-(1,2,4,5-tetrahydro-benzo[d]azepin-3-yl)-[1,2,4]triazine-6-carbonitrile], for which the IC50 worked out at 1380 nM.

For `N#Cc1nnc(NCC2CC2)nc1N1CCc2ccccc2CC1` [Example 4, 3-(Cyclopropylmethyl-amino)-5-(1,2,4,5-tetrahydro-benzo[d]azepin-3-yl)-[1,2,4]triazine-6-carbonitrile], the half-inhibitory concentration (IC50) was 5 nM.

For the compound `N#Cc1nnc(NCCO)nc1N1CCc2ccccc2CC1` [Example 5, 3-(2-Hydroxy-ethylamino)-5-(1,2,4,5-tetrahydro-benzo[d]azepin-3-yl)-[1,2,4]triazine-6-carbonitrile], the concentration for half-maximal inhibition (IC50) was determined as 31 nM.

Take `N#Cc1nnc(NN)nc1N1CCc2ccccc2CC1` [Example 7, 3-Hydrazino-5-(1,2,4,5-tetrahydro-benzo[d]azepin-3-yl)-[1,2,4]triazine-6-carbonitrile]: the IC50 is 370 nM.

On to `CC(C)(C)OC(=O)NCCNc1nnc(C#N)c(N2CCc3ccccc3CC2)n1` [Example 8, {2-[6-Cyano-5-(1,2,4,5-tetrahydro-benzo[d]azepin-3-yl)-[1,2,4]triazin-3-ylamino]-ethyl}-Carbamic Acid Tert-Butyl Ester], for which the IC50 was determined as 27 nM.

Take `N#Cc1nnc(NCCc2cccnc2)nc1N1CCc2ccccc2CC1` [Example 9, 3-(2-Pyridin-3-yl-ethylamino)-5-(1,2,4,5-tetrahydro-benzo[d]azepin-3-yl)-[1,2,4]triazine-6-carbonitrile]: the half-maximal inhibitory concentration (IC50) was 29 nM.

Regarding `N#Cc1nccnc1N1CCc2ccccc2CC1` [Example 13, 3-(1,2,4,5-Tetrahydro-benzo[d]azepin-3-yl)-pyrazine-2-carbonitrile], the IC50 was found to be 470 nM.

Regarding `Cc1nc(N2CCc3ccccc3CC2)c(C#N)nc1-c1ccccc1` [Example 14, 5-Methyl-6-phenyl-3-(1,2,4,5-tetrahydro-benzo[d]azepin-3-yl)-pyrazine-2-carbonitrile], the IC50 is 45 nM.

`N#Cc1ncc(NCCO)nc1N1CCc2ccccc2CC1` [Example 15, 5-(2-Hydroxy-ethylamino)-3-(1,2,4,5-tetrahydro-benzo[d]azepin-3-yl)-pyrazine-2-carbonitrile]: the concentration for half-maximal inhibition (IC50) was 500 nM.

As a reminder, the IC50 is the concentration that gives 50% inhibition.
